Laboratory results: paper PMC6309937 (Pain, 2019)

Experiments:
Format in all cases: cell-based
rCav2.2 = rCav2.2 (Rattus norvegicus, UniProt Q02294); experiment: whole-cell patch clamp, % inhibition of current at […]; conditions: read-out: % inhibition at 20 μM
hCav3.2 = hCav3.2 (Homo sapiens, UniProt O95180); experiment: whole-cell patch clamp, % inhibition of current; conditions: read-out: 20μM
hCav3.3 = hCav3.3 (Homo sapiens, UniProt Q9P0X4); experiment: whole-cell patch clamp, % inhibition of current; conditions: read-out: 20μM

hCav3.2, sequence (O95180 whole entry): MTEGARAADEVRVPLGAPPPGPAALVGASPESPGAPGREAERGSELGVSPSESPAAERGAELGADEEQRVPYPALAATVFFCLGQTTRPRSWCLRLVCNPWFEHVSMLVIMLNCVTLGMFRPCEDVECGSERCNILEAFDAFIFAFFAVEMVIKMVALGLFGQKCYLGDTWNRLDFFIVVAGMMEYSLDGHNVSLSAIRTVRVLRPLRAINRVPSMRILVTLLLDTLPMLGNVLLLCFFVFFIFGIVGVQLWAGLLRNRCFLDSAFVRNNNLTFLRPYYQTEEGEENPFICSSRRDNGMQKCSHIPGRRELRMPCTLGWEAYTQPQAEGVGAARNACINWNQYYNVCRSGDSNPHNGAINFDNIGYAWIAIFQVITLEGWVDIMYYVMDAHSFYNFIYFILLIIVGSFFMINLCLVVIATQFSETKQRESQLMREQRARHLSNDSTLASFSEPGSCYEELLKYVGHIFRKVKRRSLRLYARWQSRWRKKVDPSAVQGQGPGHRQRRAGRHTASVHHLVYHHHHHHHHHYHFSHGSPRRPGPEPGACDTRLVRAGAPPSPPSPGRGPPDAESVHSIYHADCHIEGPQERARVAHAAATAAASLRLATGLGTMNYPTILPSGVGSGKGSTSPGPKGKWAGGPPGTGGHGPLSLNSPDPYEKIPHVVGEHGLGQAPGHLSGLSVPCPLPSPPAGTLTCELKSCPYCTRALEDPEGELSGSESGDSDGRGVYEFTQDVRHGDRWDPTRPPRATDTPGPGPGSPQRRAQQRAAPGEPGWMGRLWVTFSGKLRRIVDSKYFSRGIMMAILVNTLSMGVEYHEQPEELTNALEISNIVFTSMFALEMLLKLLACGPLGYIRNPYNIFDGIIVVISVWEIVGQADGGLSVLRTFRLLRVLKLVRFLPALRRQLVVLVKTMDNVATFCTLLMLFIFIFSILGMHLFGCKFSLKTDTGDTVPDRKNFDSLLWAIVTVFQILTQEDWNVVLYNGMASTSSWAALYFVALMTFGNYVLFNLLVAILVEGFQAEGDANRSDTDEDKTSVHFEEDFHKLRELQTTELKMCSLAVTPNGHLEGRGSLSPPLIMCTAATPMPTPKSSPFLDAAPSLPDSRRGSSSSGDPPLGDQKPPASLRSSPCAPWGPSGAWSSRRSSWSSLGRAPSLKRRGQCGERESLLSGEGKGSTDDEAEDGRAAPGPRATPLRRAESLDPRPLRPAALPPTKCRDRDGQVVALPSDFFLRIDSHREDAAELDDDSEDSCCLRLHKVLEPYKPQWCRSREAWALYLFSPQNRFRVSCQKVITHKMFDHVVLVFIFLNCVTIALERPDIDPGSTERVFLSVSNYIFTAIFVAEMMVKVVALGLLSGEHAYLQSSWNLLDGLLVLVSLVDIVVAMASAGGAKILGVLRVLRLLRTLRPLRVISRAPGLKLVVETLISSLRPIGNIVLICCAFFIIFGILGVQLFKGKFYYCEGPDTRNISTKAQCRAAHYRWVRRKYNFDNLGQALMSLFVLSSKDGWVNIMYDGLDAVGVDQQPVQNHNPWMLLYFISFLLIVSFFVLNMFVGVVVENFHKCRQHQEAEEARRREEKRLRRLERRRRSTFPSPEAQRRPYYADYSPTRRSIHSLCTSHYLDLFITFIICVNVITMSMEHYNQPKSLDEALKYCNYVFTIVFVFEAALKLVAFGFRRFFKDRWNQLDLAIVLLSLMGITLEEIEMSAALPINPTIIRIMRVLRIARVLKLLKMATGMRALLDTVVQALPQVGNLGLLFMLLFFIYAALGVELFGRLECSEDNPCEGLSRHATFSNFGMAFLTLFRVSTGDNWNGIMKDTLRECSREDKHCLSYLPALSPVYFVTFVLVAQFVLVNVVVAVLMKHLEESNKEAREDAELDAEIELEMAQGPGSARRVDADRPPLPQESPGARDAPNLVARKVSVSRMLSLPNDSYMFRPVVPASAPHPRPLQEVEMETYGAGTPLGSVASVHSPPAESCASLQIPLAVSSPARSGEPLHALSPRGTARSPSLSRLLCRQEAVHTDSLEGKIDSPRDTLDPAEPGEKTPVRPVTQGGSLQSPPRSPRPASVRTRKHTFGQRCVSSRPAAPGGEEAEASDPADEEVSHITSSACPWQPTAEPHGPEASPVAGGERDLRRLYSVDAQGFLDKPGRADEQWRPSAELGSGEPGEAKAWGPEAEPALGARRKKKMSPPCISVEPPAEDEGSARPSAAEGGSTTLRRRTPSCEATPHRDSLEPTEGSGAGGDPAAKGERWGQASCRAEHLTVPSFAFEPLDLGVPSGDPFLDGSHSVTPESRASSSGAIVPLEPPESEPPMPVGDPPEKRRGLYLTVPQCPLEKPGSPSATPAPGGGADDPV
rCav2.2, sequence (Q02294 whole entry): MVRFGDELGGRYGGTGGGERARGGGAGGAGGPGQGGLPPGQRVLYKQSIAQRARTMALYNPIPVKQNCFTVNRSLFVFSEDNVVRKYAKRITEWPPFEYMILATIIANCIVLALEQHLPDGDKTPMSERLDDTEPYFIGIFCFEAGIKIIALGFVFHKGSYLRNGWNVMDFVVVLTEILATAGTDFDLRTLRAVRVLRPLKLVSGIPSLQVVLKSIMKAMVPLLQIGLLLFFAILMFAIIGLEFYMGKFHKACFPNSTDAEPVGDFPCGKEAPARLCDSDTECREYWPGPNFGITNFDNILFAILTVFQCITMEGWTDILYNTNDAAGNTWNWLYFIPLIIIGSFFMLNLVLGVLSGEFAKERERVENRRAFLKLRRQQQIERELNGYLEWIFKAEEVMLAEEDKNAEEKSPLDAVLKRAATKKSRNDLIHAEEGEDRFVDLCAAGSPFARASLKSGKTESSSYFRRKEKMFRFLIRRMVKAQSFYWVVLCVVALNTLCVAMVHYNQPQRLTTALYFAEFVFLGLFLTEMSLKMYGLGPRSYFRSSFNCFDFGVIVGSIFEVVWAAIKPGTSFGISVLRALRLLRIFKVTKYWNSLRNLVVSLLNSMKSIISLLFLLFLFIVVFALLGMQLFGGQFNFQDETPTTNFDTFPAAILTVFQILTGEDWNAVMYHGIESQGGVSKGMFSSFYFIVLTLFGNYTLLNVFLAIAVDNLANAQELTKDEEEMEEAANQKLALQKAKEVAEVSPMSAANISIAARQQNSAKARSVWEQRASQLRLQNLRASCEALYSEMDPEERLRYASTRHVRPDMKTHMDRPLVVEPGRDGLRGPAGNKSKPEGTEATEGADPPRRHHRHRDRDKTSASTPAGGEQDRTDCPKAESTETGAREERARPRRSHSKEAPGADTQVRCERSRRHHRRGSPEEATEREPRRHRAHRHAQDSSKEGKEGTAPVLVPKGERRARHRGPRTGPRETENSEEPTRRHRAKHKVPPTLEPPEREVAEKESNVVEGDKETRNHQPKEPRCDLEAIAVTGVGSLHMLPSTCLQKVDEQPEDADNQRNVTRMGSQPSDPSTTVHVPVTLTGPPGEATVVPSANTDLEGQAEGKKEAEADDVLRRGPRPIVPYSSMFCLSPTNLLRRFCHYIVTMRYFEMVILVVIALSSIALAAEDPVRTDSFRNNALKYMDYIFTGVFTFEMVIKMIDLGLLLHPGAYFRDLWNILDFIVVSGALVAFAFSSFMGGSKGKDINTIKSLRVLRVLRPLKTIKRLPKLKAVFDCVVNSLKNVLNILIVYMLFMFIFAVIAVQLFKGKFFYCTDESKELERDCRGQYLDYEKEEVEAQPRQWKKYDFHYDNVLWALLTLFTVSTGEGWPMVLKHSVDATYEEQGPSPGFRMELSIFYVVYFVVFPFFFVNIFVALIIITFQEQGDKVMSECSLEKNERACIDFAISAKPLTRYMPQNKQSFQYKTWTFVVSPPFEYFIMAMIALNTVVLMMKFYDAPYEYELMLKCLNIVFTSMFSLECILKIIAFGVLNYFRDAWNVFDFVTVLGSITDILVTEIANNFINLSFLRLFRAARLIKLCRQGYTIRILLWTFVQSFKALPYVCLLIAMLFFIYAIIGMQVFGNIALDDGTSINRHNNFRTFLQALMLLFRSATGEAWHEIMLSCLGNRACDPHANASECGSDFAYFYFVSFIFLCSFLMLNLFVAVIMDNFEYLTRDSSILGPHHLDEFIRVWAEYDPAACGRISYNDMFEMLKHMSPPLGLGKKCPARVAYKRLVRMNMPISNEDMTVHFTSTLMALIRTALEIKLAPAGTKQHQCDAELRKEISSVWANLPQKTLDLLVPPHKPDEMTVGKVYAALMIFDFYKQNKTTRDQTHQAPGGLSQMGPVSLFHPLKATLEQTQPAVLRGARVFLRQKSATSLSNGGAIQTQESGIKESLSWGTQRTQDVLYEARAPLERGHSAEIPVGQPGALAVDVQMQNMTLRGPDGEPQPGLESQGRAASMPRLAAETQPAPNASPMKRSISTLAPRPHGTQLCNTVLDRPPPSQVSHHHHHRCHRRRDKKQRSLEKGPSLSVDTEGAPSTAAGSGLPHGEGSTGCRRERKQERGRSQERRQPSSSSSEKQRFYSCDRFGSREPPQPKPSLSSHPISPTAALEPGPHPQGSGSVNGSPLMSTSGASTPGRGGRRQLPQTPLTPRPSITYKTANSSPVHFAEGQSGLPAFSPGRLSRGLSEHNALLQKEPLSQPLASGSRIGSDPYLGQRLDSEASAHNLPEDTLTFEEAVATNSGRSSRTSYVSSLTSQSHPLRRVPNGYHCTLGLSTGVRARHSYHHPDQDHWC

SMILES: C=C(C)[C@@H]1CC[C@]2(C(=O)O)CC[C@]3(C)[C@H](CC[C@@H]4[C@@]5(C)CC[C@H](O)C(C)(C)[C@@H]5CC[C@]43C)[C@@H]12 [BA, betulinic acid]
- inhibition at 20 µM (rCav2.2): 69.8 ± 2.5%
- inhibition at 20 µM (hCav3.2): 66.1 ± 4.6%
- inhibition at 20 µM (hCav3.3): 31.4 ± 1.8%
